Here are results for 13 compounds from PubChem BioAssay (NCI).

Among the test systems are NCI-H460 lung; SK-MEL-28 melanoma; SW-620 colon; OVCAR-8 ovarian; M14 melanoma; MALME-3M melanoma; K-562 leukemia; EKVX NSCLC; HT29 colon; COLO 205 colon; MDA-MB-231 breast; NCI/ADR-RES ovarian.
Holding throughout (assay): inhibition of tumour cell growth, NCI panel, 48 h

“And” between values parts separate entries of the source, which are not always exact repeats. Identical values can stand only once.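 Following 48 hours of exposure in 96-well plates, responses at five concentrations were used to interpolate endpoints linearly. GI50 is the concentration that inhibits growth by half. The concentration for full growth arrest is given as TGI.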

Take `Nc1nc(-c2ccco2)cc(-c2ccc(CO)o2)n1`: the TGI in the assay with NCI-H460 lung, in the assay on SK-MEL-28 melanoma, with SW-620 colon, in the assay with OVCAR-8 ovarian, in the assay on M14 melanoma and in the assay on MALME-3M melanoma was greater than 100 µM throughout. In addition, the TGI in the assay with K-562 leukemia, with EKVX NSCLC, in the assay with HT29 colon and in the assay on COLO 205 colon was greater than 100 µM in each case.
Regarding `COC1=C(C)C(=O)c2c(cc3c(c2O)C(C)(CCC=C(C)C)C(C)O3)C1=O` (centres undefined), the TGI in the assay with NCI-H460 lung is 27.2 µM; in the assay with SK-MEL-28 melanoma, greater than 100 µM; in the assay on SW-620 colon, greater than 100 µM; with OVCAR-8 ovarian it was greater than 100 µM; in the assay with M14 melanoma, 55.7 µM; in the assay on MALME-3M melanoma, greater than 100 µM. In addition, the TGI in the assay on K-562 leukemia, in the assay on EKVX NSCLC, with HT29 colon and in the assay on COLO 205 colon was greater than 100 µM in each case.
With `COc1cc(C2c3cc4c(cc3[C@@H](NCCN3CCOCC3)C3COC(=O)[C@H]23)OCO4)cc(OC)c1O` (some centres undefined), the GI50 is 0.051 µM and 0.174 µM in the assay on NCI-H460 lung; 8.01 µM and 1.95 µM in the assay with COLO 205 colon. The TGI with NCI-H460 lung is 1.26 µM and 2.4 µM; in the assay on SK-MEL-28 melanoma, 16.6 µM and > 17.5 µM; in the assay on SW-620 colon it was 18.5 µM and > 17.5 µM; in the assay on OVCAR-8 ovarian it was 11.9 µM; with M14 melanoma, 11.7 µM and > 17.5 µM; in the assay with MALME-3M melanoma, 11.2 µM and 14.2 µM. For the same compound, the TGI in the assay with K-562 leukemia is greater than 75 µM; in the assay on EKVX NSCLC, 54.4 µM and > 17.5 µM; in the assay on HT29 colon it was 18.1 µM and > 17.5 µM; in the assay on COLO 205 colon, 19.4 µM and > 17.5 µM.
As for `O=C1c2ccccc2N2Oc3ccccc3C12c1ccccc1` (centres undefined), the TGI with SK-MEL-28 melanoma, in the assay on SW-620 colon, with OVCAR-8 ovarian, with M14 melanoma, with MALME-3M melanoma and with K-562 leukemia was greater than 100 µM throughout. The TGI in the assay with EKVX NSCLC, in the assay with HT29 colon and with COLO 205 colon was greater than 100 µM in each case.
Consider `CCCCCCCCC/C=C1\CCC(CN(C)C)C1=O` (centres undefined), for which the TGI in the assay on NCI-H460 lung stood at 12.5 µM; in the assay with SK-MEL-28 melanoma, 4.28 µM; in the assay with SW-620 colon, 3.08 µM; in the assay with OVCAR-8 ovarian, 3.11 µM; in the assay with M14 melanoma, 3.57 µM; in the assay on MALME-3M melanoma, 12.6 µM. The TGI is 7.53 µM in the assay with K-562 leukemia, 4.81 µM in the assay on EKVX NSCLC, 3.16 µM with HT29 colon and 5.37 µM in the assay with COLO 205 colon.
As for `CC(=O)CC1=C(OC(C)C)C2(OCCO2)C1O` (centres undefined), the TGI with NCI-H460 lung, in the assay with SK-MEL-28 melanoma, in the assay with SW-620 colon, with OVCAR-8 ovarian, with M14 melanoma and in the assay on MALME-3M melanoma was greater than 100 µM in each case. For the same compound, the TGI in the assay on MDA-MB-231 breast, in the assay on EKVX NSCLC, in the assay with HT29 colon and in the assay on COLO 205 colon was greater than 100 µM in each case.
Take `COc1ccccc1C1c2cc3c(cc2OC(N2CCOCC2)C1C)OCO3` (centres undefined): the TGI in the assay on NCI-H460 lung is 40.7 µM; with SK-MEL-28 melanoma it was 32.6 µM; in the assay with SW-620 colon, 50.3 µM; with OVCAR-8 ovarian, greater than 100 µM; in the assay with M14 melanoma, 38.7 µM; in the assay on K-562 leukemia, 24 µM. The TGI in the assay on NCI/ADR-RES ovarian was found to be 61.6 µM; in the assay with EKVX NSCLC, 89.6 µM; in the assay with HT29 colon, 40.9 µM.
As for `COc1cc2c(c(OC)c1OC)-c1ccc(SC)cc1C(O)CC2` (centres undefined), the TGI was 19.5 µM in the assay on NCI-H460 lung; greater than 100 µM in the assay with SK-MEL-28 melanoma; greater than 100 µM in the assay with SW-620 colon; > 100 µM and 34.9 µg/mL with M14 melanoma; greater than 100 µM in the assay with MALME-3M melanoma; greater than 100 µM in the assay with MDA-MB-231 breast. The TGI is less than 0.01 µM in the assay on K-562 leukemia, greater than 100 µM with EKVX NSCLC and 0.179 µM in the assay on COLO 205 colon.
Take `N#CNC(=NCCc1c[nH]c2ccccc12)Oc1ccccc1`: the TGI with NCI-H460 lung, in the assay with SK-MEL-28 melanoma, in the assay with SW-620 colon, in the assay on OVCAR-8 ovarian, in the assay on M14 melanoma and in the assay with K-562 leukemia was greater than 100 µM in each case. Besides, the TGI in the assay with EKVX NSCLC, in the assay with HT29 colon and in the assay with COLO 205 colon was greater than 100 µM each time.
`N#Cc1c(-c2ccccc2)c(CN2CCCCC2)c(=O)n2c1[nH]c1ccccc12`: the TGI in the assay with NCI-H460 lung, in the assay on SK-MEL-28 melanoma, with SW-620 colon, in the assay with OVCAR-8 ovarian, in the assay on M14 melanoma and in the assay on MALME-3M melanoma was greater than 100 µM each time. Also, the TGI in the assay on MDA-MB-231 breast is greater than 100 µM; in the assay with K-562 leukemia, 60.9 µM; with NCI/ADR-RES ovarian it was greater than 100 µM; in the assay with COLO 205 colon it was 64 µM.
With `Cn1cc(-c2csc(-c3cn(C)c4ccccc34)n2)c2ccccc21`, the TGI is greater than 100 µM in the assay on NCI-H460 lung; greater than 100 µM in the assay on SK-MEL-28 melanoma; greater than 100 µM in the assay with SW-620 colon; greater than 100 µM in the assay on OVCAR-8 ovarian; greater than 100 µM with M14 melanoma; 70 µM with MALME-3M melanoma. The TGI was 60.1 µM in the assay on MDA-MB-231 breast; 31.9 µM in the assay with K-562 leukemia; greater than 100 µM with NCI/ADR-RES ovarian; greater than 100 µM in the assay on HT29 colon; greater than 100 µM in the assay on COLO 205 colon.
As for `Cc1[nH]c(=O)nc(NNCc2ccc(Cl)cc2)c1C(=O)Nc1ccc(Cl)cc1`, the TGI in the assay with NCI-H460 lung, with SK-MEL-28 melanoma, in the assay with SW-620 colon, in the assay with OVCAR-8 ovarian, with M14 melanoma and in the assay on MALME-3M melanoma was greater than 100 µM each time. The TGI in the assay with MDA-MB-231 breast, in the assay with NCI/ADR-RES ovarian and in the assay with COLO 205 colon was greater than 100 µM each time.
`COc1cccc(C2c3cc4c(cc3OC(Nc3ccccc3)C2C)OCO4)c1OC` (centres undefined): the TGI is greater than 100 µM with NCI-H460 lung; greater than 100 µM with SK-MEL-28 melanoma; greater than 100 µM with SW-620 colon; 33.1 µM in the assay with OVCAR-8 ovarian; greater than 100 µM with M14 melanoma; greater than 100 µM with MALME-3M melanoma. For the same compound, the TGI with MDA-MB-231 breast is greater than 100 µM; in the assay on K-562 leukemia it was greater than 100 µM; in the assay with EKVX NSCLC, greater than 100 µM; in the assay with HT29 colon it was greater than 100 µM; with COLO 205 colon, 19.7 µM.
